Measurements taken from ChEMBL document CHEMBL5338732, “Perspective for Discovery of Small Molecule IL-6 Inhibitors through Study of Structure-Activity Relationships and Molecular Docking” (J Med Chem, 2023).

Experiments:
Type in all cases: functional, cell-based
[1] = Cytotoxicity against human p53HCT116 cells assessed as inhibition of cell growth incubated for 72 hrs by MTT assay; settings: p53HCT116, 72 h
[2] = Cytotoxicity against human HCT116-p53-null cells assessed as inhibition of cell growth incubated for 72 hrs by MTT assay
MDA-MB-435 = test: Cytotoxicity against human MDA-MB-435 cells assessed as reduction in cell growth incubated for 72 hrs by MTT assay; settings: MDA-MB-435, 72 h
MH60 = test: Cytotoxicity in mouse MH60 cells assessed as inhibition of recombinant human IL-6-induced growth incubated for 72 hrs by tetrazolium method; settings: MH60, 72 h

SMILES: O=C(NNc1nc2cc(F)ccc2n2cccc12)c1cnccn1
- IC50 [1]: 400 nM
- IC50 [2]: 400 nM
- IC50 (MDA-MB-435): 400 nM

SMILES: CCCCC1=C(C)C(=O)[C@@](C)(CN2c3ccccc3[C@]3(O)CCO[C@H]23)C1=O
- IC50 (MH60): 8000 nM

SMILES: CCCCC1=C(C)C(=O)[C@](C)(CN2c3ccccc3[C@]3(O)CCO[C@H]23)C1=O
- IC50 (MH60): 30000 nM

SMILES: Cc1c(-c2ccc(O)cc2)n(Cc2ccc(OCCN3CCCCCC3)cc2)c2ccc(O)cc12 [BAZEDOXIFENE]
- IC50 (MH60): 3800 nM
